{
  "source": "patent US20210275545A1",
  "about": "“METHOD OF TREATING CANCER PREFERABLY CHARACTERIZED BY EXPRESSION OF A FUSION PROTEIN COMPRISING A MEMBER OF THE E-TWENTY-SIX FAMILY BY ADMINISTERING AN AGENT THAT INHIBITS THE SYNTHESIS AND/OR ACTIVITY OF CORTISOL” (Yeda Research and Development Co. Ltd., priority 2018, published 2021)",
  "key": {"GR and FLI1 [1]": {"biological_target": "T1, GR and FLI1 (Homo sapiens, UniProt P04150)", "T1 sequence (P04150 whole entry, the tested form may be a part)": "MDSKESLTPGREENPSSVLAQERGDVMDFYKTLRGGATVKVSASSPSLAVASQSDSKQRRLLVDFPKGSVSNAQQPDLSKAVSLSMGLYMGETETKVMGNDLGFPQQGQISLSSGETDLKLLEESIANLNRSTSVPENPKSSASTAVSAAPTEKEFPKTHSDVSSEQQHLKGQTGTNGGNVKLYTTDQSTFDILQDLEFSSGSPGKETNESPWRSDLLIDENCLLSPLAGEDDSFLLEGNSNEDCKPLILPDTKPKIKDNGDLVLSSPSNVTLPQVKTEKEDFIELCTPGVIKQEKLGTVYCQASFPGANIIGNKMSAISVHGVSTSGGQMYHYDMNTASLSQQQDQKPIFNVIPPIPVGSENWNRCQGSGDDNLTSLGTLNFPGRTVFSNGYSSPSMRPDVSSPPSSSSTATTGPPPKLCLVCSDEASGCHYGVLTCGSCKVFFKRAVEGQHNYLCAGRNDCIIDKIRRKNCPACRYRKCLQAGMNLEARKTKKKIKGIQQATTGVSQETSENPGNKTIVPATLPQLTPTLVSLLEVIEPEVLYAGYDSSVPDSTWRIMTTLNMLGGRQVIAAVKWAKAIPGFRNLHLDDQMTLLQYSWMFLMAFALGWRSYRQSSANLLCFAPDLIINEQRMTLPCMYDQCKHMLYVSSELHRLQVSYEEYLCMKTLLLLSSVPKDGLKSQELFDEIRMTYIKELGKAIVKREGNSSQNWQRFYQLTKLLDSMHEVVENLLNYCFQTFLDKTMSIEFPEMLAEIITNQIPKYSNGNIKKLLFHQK", "settings": "combination of DEX (1 μM) and RU486 (1 μM)", "protocol": "(§1) (A) The scheme presents the full length Gaussia luciferase protein, along with either the amino-terminal segment (Gluc1), which was fused to an ETS family transcription factor, or the carboxyl terminal segment (Gluc2), which was fused to GR. Amino acid numbers are indicated. cDNAs encoding most members of the ETS family (16 members altogether) were cloned downstream to Gluc1. […] (B) HEK-293T cells (6×10^3) were seeded in 96-well plates. On the next day, cells were transfected with combinations of the Gluc1 plasmid, encoding a fused ETS family member, and the Gluc2 plasmid encoding a fused full-length GR. […] Cells were then lysed and luminescence was determined in biological triplicates. […] (D and E) HEK-293T cells were seeded in 100-mm dishes. Once they reached sub-maximal density (70%), cells were starved overnight for serum factors. […] Cell extracts were then processed for co-immunoprecipitation assays, in which the endogenous FLI1 or ERG protein was immunoprecipitated using a specific antibody, and immunoblotting was performed using an antibody against GR. EB, empty beads; C, solvent control. Images shown are representative of three biological replicates.\n(A) HEK-293T cells (6×10^3) were seeded in 96-well plates. On the next day, the cells were transfected with combinations of the Gluc1 plasmid, encoding fused FLI1 or ERG, and the Gluc2 plasmid encoding GR. […] Cells were then lysed and luminescence was determined in each sample. Luminescence of vehicle-treated cells was used for normalization. […] (B) HEK-293T cells were seeded on coverslips in 6-well plates. […] Images were processed using the Zeiss ZEN2011 software. […] Bars, 20 μm.\nProtein-fragment complementation assays (PCA): PCA was performed as previously described."}, "GR and FLI1 [2]": {"biological_target": "T1, GR and FLI1", "settings": "HEK-293T cells, treated for 60 minutes", "protocol": "as §1\n(§2) Proximity ligation assay (PLA), extraction of cells, co-immunoprecipitation and cell migration/invasion assays: These assays were performed exactly as recently reported."}, "GR and EWS-FLI1 [3]": {"biological_target": "T2, GR and EWS-FLI1 (Homo sapiens, UniProt P04150)", "T2 sequence (P04150 whole entry)": "as the sequence (P04150 whole entry, the tested form may be a part) above", "settings": "A673 cells", "protocol": "Images were processed using the Zeiss ZEN2011 software. […] Bars, 20 μm.\nas §2"}, "CHLA9 and RD-ES cells": {"test_system": "CHLA9 and RD-ES cells", "test": "Matrigel invasion assay of ES cells", "format": "cell-based", "settings": "DEX 1 μM, RU486 1 μM, D06 10 μM; 20 hours", "procedure": "(§3) (A) CHLA9 cells were seeded in 100-mm dishes. Once they reached sub-maximal density, cells were starved overnight for serum factors. […] Cells were then extracted and the lysates were processed for co-immunoprecipitation assays using an antibody against GR followed by immunobloting that used an antibody against EWS. The image shown is representative of 3 biological replicates. Signals were quantified and normalized (see numbers below each lane). EB, empty beads. […] (C-D) CHLA9 cells were seeded on the upper faces of either Transwell migration chambers or Matrigel-coated invasion chambers, and further incubated for 20 hours in full medium. Control siRNAs or siRNAs specific to either GR or EWS-FLI1 were added to cells 24 hours prior to seeding, and both cell migration and invasion were measured 20 hours later. […] Cells that reached the lower faces of the chambers were fixed and stained. Shown are representative images of stained cells. The bar plots show quantification, using ImageJ, of the area covered by cells. *, p≤0.05, **, p≤0.005. Bars, 500 μm. […] The bar plots show quantification, using ImageJ, of the area covered by cells. *, p≤0.05, **, p≤0.005. […]\n(§4) (A) RD-ES cells were seeded in 100-mm dishes. […] Cell migration/invasion was determined 20 hours later."}, "[4]": {"test_system": "CHLA9, A673 and RD-ES cells", "test": "MTT cell viability assay, three ES lines", "format": "cell-based", "settings": "increasing concentrations, 24 hours", "protocol": "FIGS. 12A-F: Inhibition of GR activity decreases growth and survival of Ewing's sarcoma cells. […] (B) Increasing concentrations of D06, a non-steroidal antagonist of GR [54], were incubated with A673 cells as in A and the MTT assay was performed in triplicates. *, p<0.05. […] Note that the abundance of the endogenous form of FLI1 is much weaker than that of EWS-FLI1. […] MTT assays were performed after 48 hours of treatment. The assay was repeated twice in quadruplets. **, p<0.01, ***, p<0.001. (E) A673 cells were seeded in 100-mm dishes. […] Shown are results of an apoptosis assay performed using an annexinV/7-AAD kit (BioLegend, Inc.). Quantification of the fractions of early and late apoptotic cells is shown in bar plots. The experiment was repeated twice. (F) The indicated ES cells were sparsely seeded in 6-well plates. […] Ten days later, cells were fixed and stained with crystal violet to visualize emerging colonies. Photos are shown along with bar plots showing the quantification of colonies in 5 non-overlapping microscope fields. The experiment was repeated twice. *, p≤0.05; **, p≤0.001.\nAccording to recent reports, the EWS-FLI1 fusion promotes cell cycle progression and inhibits apoptosis. […] Next, siRNA specific to the FLI1 region of the fusion (FIG. 12C) were analyzed in A673 cells. […]"}, "A673 cells": {"test_system": "A673 cells", "test": "MTT cell viability assay, A673 cells", "format": "cell-based", "settings": "FLI1 silenced A673 cells; RU486 10 μM, 48 hours"}, "TC-71 cells": {"test_system": "TC-71 cells", "test": "Bone-to-lung metastasis of luciferase-labeled TC-71 cells injected into the tibia", "format": "in vivo, SCID mice", "settings": "TC-71 in tibia; 1 mg/kg intraperitoneally", "text": "FIGS. 6A-E. A GR antagonist and a cortisol-lowering drug impede growth of human xenograft models of Ewing's sarcoma. (A) RD-ES cells (2×10^6) were implanted subcutaneously in the right flank of SCID mice. […] The means of tumor volumes (+SEM) are shown. […] (B) Shown are representative images of immunofluorescent staining for KI67 in paraffin-embedded sections of tumors from A, using an antibody against KI67. Scale bars, 100 μm. Also shown is the scatter plot depicting quantification of KI67 staining in randomly selected 4 fields of a representative tumor from each group. […] (C and D) A673 cells (2×10^6) were implanted in female SCID mice. […] Each group was daily treated with either vehicle, or Metyrapone (25 mg/kg) and tumorigenic growth was monitored. Actual tumor volumes (±SEM) are presented. Also shown are tumors harvested from each group of animals; **p<0.001. (E) TC-71 cells (10^6) engineered to stably express luciferase were injected into the tibia of female SCID mice (5 weeks old; 7 mice per group). […] The control group was similarly treated with the solvent (0.1% tween 80). When the primary tumor reached 10% of body weight, the lungs were excised and examined for metastasis using luciferase bioluminescence imaging. […] Luminescence was quantified and presented in a bar graph. […] Tumor growth was monitored once every 3 days using a caliper. […]"}, "GR and EWS-FLI1 [5]": {"biological_target": "T2, GR and EWS-FLI1", "settings": "DEX 1 μM, RU486 1 μM, 60 minutes", "procedure": "as §3, §4"}},
  "data": [
    {"compound": "CC#C[C@]1(O)CC[C@H]2[C@@H]3CCC4=CC(=O)CCC4=C3[C@@H](c3ccc(N(C)C)cc3)C[C@@]21C", "note": "[RU486, Mifepristone]", "values": [
      {"measurement": "effect on DEX-induced physical interaction between GR and FLI1 (PCA)", "setting": "GR and FLI1 [1]", "value": "significantly inhibited"},
      {"measurement": "co-immunoprecipitation of GR and FLI1", "setting": "GR and FLI1 [2]", "value": "strongly reduced"},
      {"measurement": "GR/EWS-FLI1 protein-protein interactions (PLA)", "setting": "GR and EWS-FLI1 [3]", "value": "blocked"},
      {"measurement": "matrix invasion", "setting": "CHLA9 and RD-ES cells", "value": "inhibited"},
      {"measurement": "survival of ES cell lines (MTT)", "setting": "[4]", "value": "dose-dependent reduction"},
      {"measurement": "fraction of metabolically active cells (MTT) after EWS-FLI1 knockdown", "setting": "A673 cells", "value": "further reduced"},
      {"measurement": "bone-to-lung metastasis (lung luminescence)", "setting": "TC-71 cells", "value": "lessened lung nodules"},
      {"measurement": "GR/EWS-FLI1 co-immunoprecipitation, CHLA9 cells", "setting": "GR and EWS-FLI1 [5]; CHLA9 cells", "value": "completely"},
      {"measurement": "GR/EWS-FLI1 co-immunoprecipitation, RD-ES cells", "setting": "GR and EWS-FLI1 [5]; RD-ES cells", "value": "partially"}
    ]}
  ]
}
